The target in the assay is T1, Full length human recombinant HDAC6 protein (Homo sapiens, UniProt Q9UBN7).
T1 sequence (Q9UBN7 1-1215): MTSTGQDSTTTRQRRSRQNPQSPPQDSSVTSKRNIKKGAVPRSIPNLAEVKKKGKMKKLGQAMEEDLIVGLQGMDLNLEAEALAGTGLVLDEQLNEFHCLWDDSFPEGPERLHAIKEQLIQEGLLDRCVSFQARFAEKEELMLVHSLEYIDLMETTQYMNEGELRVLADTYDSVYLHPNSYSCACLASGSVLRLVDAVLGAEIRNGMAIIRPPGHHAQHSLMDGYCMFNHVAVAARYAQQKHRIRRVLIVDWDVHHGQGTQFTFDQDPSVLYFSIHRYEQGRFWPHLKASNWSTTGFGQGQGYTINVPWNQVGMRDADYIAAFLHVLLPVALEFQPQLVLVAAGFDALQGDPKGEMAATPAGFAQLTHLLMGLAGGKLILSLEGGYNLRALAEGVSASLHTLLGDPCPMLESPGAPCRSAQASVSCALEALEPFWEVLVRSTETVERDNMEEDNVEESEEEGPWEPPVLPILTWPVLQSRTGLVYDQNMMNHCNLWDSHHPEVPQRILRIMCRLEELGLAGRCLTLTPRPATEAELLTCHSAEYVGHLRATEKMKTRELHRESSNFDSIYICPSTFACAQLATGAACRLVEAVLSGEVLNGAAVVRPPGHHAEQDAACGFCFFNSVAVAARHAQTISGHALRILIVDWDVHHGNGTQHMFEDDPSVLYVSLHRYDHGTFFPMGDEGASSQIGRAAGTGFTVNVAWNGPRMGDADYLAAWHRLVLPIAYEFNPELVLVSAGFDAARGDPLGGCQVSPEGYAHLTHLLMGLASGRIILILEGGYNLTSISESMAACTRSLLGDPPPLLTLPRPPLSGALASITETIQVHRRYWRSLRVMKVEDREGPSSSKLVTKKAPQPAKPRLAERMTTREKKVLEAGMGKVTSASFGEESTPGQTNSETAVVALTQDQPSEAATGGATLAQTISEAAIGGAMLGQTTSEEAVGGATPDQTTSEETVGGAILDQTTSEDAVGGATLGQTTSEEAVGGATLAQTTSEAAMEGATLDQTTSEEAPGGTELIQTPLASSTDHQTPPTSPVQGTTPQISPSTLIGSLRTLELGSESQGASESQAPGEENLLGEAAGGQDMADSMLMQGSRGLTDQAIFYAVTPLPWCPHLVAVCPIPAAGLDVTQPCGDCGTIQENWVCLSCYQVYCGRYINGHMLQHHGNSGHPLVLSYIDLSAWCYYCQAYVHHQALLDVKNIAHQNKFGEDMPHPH
The assay is described as follows: In vitro histone deacetylase assay: enzymatic HDAC6 electrophoretic mobility shift assay. In kind it is biochemical. The following applies: 1 nM enzyme, 2 μM peptide substrate RHKK(Ac)-NH2, 25° C., 12 concentrations; read-out: Inhibitory Concentration (IC50) Values against HDAC6, Activity Range.

SMILES strings stand for the structures.

In the case of `CC1(C(=O)N2Cc3ccc(C(=O)NO)cc3OCC2(C)C)CCC1` [N-hydroxy-3,3-dimethyl-4-(1-methylcyclobutane-1-carbonyl)-2,3,4,5-tetrahydrobenzo[f][1,4]oxazepine-8-carboxamide], the IC50 was greater than 500 nM.

Consider `O=C(NO)c1ccc2c(c1)OCCN(C(=O)C1(c3ccccc3C(F)(F)F)CC1)C2` [N-hydroxy-4-(1-(2-(trifluoromethyl)phenyl)cyclopropane-1-carbonyl)-2,3,4,5-tetrahydrobenzo[f][1,4]oxazepine-8-carboxamide], for which the IC50 is no more than 100 nM.

Turning to `O=C(NO)c1ccc2c(c1)OCCN(C(=O)C1(c3cccc(C(F)(F)F)c3)CC1)C2` [N-hydroxy-4-(1-(3-(trifluoromethyl)phenyl)cyclopropane-1-carbonyl)-2,3,4,5-tetrahydrobenzo[f][1,4]oxazepine-8-carboxamide], the IC50 is no more than 100 nM.

For the compound `COc1cccc(C2(C(=O)N3CCOc4cc(C(=O)NO)ccc4C3)CC2)c1` [N-hydroxy-4-(1-(3-methoxyphenyl)cyclopropane-1-carbonyl)-2,3,4,5-tetrahydrobenzo[f][1,4]oxazepine-8-carboxamide], the IC50 was no more than 100 nM.

With `O=C(NO)c1ccc2c(c1)OCCN(C(=O)C1(c3ccc(C(F)(F)F)cc3)CC1)C2` [N-hydroxy-4-(1-(4-(trifluoromethyl)phenyl)cyclopropane-1-carbonyl)-2,3,4,5-tetrahydrobenzo[f][1,4]oxazepine-8-carboxamide], the IC50 is no more than 100 nM.

For `COc1ccc(C2(C(=O)N3CCOc4cc(C(=O)NO)ccc4C3)CC2)cc1` [N-hydroxy-4-(1-(4-methoxyphenyl)cyclopropane-1-carbonyl)-2,3,4,5-tetrahydrobenzo[f][1,4]oxazepine-8-carboxamide], the IC50 is no more than 100 nM.

As for `COCC1(C(=O)N2CCOc3cc(C(=O)NO)ccc3C2)CCC1` [N-hydroxy-4-(1-(methoxymethyl)cyclobutane-1-carbonyl)-2,3,4,5-tetrahydrobenzo[f][1,4]oxazepine-8-carboxamide], the IC50 is no more than 100 nM.

On to `COCC1(C(=O)N2CCOc3cc(C(=O)NO)ccc3C2)CC1` [N-hydroxy-4-(1-(methoxymethyl)cyclopropane-1-carbonyl)-2,3,4,5-tetrahydrobenzo[f][1,4]oxazepine-8-carboxamide], for which the IC50 is no more than 100 nM.

With `O=C(NO)c1ccc2c(c1)OCCN(C(=O)C1(S(=O)(=O)c3ccccc3)CC1)C2` [N-hydroxy-4-(1-(phenylsulfonyl)cyclopropane-1-carbonyl)-2,3,4,5-tetrahydrobenzo[f][1,4]oxazepine-8-carboxamide], the IC50 was no more than 100 nM.

Turning to `O=C(NO)c1ccc2c(c1)OCCN(C(=O)C1(c3cnccn3)CC1)C2` [N-hydroxy-4-(1-(pyrazin-2-yl)cyclopropane-1-carbonyl)-2,3,4,5-tetrahydrobenzo[f][1,4]oxazepine-8-carboxamide], the IC50 is no more than 100 nM.

As for `O=C(NO)c1ccc2c(c1)OCCN(C(=O)C1(c3ccccn3)CC1)C2` [N-hydroxy-4-(1-(pyridin-2-yl)cyclopropane-1-carbonyl)-2,3,4,5-tetrahydrobenzo[f][1,4]oxazepine-8-carboxamide], the IC50 is no more than 100 nM.

Consider `O=C(NO)c1ccc2c(c1)OCCN(C(=O)C1(c3ccncc3)CC1)C2` [N-hydroxy-4-(1-(pyridin-4-yl)cyclopropane-1-carbonyl)-2,3,4,5-tetrahydrobenzo[f][1,4]oxazepine-8-carboxamide], for which the IC50 is no more than 100 nM.

As to `O=C(NO)c1ccc2c(c1)OCCN(C(=O)C1(c3cccs3)CC1)C2` [N-hydroxy-4-(1-(thiophen-2-yl)cyclopropane-1-carbonyl)-2,3,4,5-tetrahydrobenzo[f][1,4]oxazepine-8-carboxamide], the IC50 was no more than 100 nM.

As to `O=C(NO)c1ccc2c(c1)OCCN(C(=O)C1(O)CC1)C2` [N-hydroxy-4-(1-hydroxycyclopropane-1-carbonyl)-2,3,4,5-tetrahydrobenzo[f][1,4]oxazepine-8-carboxamide], the IC50 is greater than 500 nM.

Take `COC1(C(=O)N2CCOc3cc(C(=O)NO)ccc3C2)CCC1` [N-hydroxy-4-(1-methoxycyclobutane-1-carbonyl)-2,3,4,5-tetrahydrobenzo[f][1,4]oxazepine-8-carboxamide]: the IC50 is no more than 100 nM.

For `COC1(C(=O)N2CCOc3cc(C(=O)NO)ccc3C2)CC1` [N-hydroxy-4-(1-methoxycyclopropane-1-carbonyl)-2,3,4,5-tetrahydrobenzo[f][1,4]oxazepine-8-carboxamide], the IC50 was no more than 100 nM.

With `Cn1c(C(=O)N2CCOc3cc(C(=O)NO)ccc3C2)cc2ccccc21` [N-hydroxy-4-(1-methyl-1H-indole-2-carbonyl)-2,3,4,5-tetrahydrobenzo[f][1,4]oxazepine-8-carboxamide], the IC50 is no more than 100 nM.

Turning to `Cn1ccc(C(=O)N2CCOc3cc(C(=O)NO)ccc3C2)n1` [N-hydroxy-4-(1-methyl-1H-pyrazole-3-carbonyl)-2,3,4,5-tetrahydrobenzo[f][1,4]oxazepine-8-carboxamide], the IC50 is no more than 100 nM.

For `Cn1cccc1C(=O)N1CCOc2cc(C(=O)NO)ccc2C1` [N-hydroxy-4-(1-methyl-1H-pyrrole-2-carbonyl)-2,3,4,5-tetrahydrobenzo[f][1,4]oxazepine-8-carboxamide], the IC50 was no more than 100 nM.

With `Cn1cc(C(=O)N2CCOc3cc(C(=O)NO)ccc3C2)ccc1=O` [N-hydroxy-4-(1-methyl-6-oxo-1,6-dihydropyridine-3-carbonyl)-2,3,4,5-tetrahydrobenzo[f][1,4]oxazepine-8-carboxamide], the IC50 is greater than 500 nM.

With `CC1(C(=O)N2CCOc3cc(C(=O)NO)ccc3C2)CCC1` [N-hydroxy-4-(1-methylcyclobutane-1-carbonyl)-2,3,4,5-tetrahydrobenzo[f][1,4]oxazepine-8-carboxamide], the IC50 was no more than 100 nM.

In the case of `CC1(C(=O)N2CC(=O)Nc3ccc(C(=O)NO)cc3C2)CCC1` [N-hydroxy-4-(1-methylcyclobutane-1-carbonyl)-2-oxo-2,3,4,5-tetrahydro-1H-benzo[e][1,4]diazepine-7-carboxamide], the IC50 lay within 100 to 500 nM.

Consider `CC1(C(=O)N2CCOc3cc(C(=O)NO)ccc3C2)CCCCC1` [N-hydroxy-4-(1-methylcyclohexane-1-carbonyl)-2,3,4,5-tetrahydrobenzo[f][1,4]oxazepine-8-carboxamide], for which the IC50 was no more than 100 nM.

For `CC1(C(=O)N2CCOc3cc(C(=O)NO)ccc3C2)CCCC1` [N-hydroxy-4-(1-methylcyclopentane-1-carbonyl)-2,3,4,5-tetrahydrobenzo[f][1,4]oxazepine-8-carboxamide], the IC50 is no more than 100 nM.

For the compound `CC1(C(=O)N2CCOc3cc(C(=O)NO)ccc3C2)CC1` [N-hydroxy-4-(1-methylcyclopropane-1-carbonyl)-2,3,4,5-tetrahydrobenzo[f][1,4]oxazepine-8-carboxamide], the IC50 is no more than 100 nM.

Consider `O=C(NO)c1ccc2c(c1)OCCN(C(=O)C1(Oc3ccccc3)CC1)C2` [N-hydroxy-4-(1-phenoxycyclopropane-1-carbonyl)-2,3,4,5-tetrahydrobenzo[f][1,4]oxazepine-8-carboxamide], for which the IC50 lay in the range of 100 to 500 nM.

With `O=C(NO)c1ccc2c(c1)OCCN(C(=O)C1(c3ccccc3)CCC1)C2` [N-hydroxy-4-(1-phenylcyclobutane-1-carbonyl)-2,3,4,5-tetrahydrobenzo[f][1,4]oxazepine-8-carboxamide], the IC50 was no more than 100 nM.

Regarding `O=C(NO)c1ccc2c(c1)OCCN(C(=O)C1(c3ccccc3)CC1)C2` [N-hydroxy-4-(1-phenylcyclopropane-1-carbonyl)-2,3,4,5-tetrahydrobenzo[f][1,4]oxazepine-8-carboxamide], the IC50 is no more than 100 nM.

Regarding `O=C(NO)c1ccc2c(c1)OCCN(C(=O)c1ccc3[nH]ccc3c1)C2` [N-hydroxy-4-(1H-indole-5-carbonyl)-2,3,4,5-tetrahydrobenzo[f][1,4]oxazepine-8-carboxamide], the IC50 was no more than 100 nM.

Take `CS(=O)(=O)N1CCC(CC(=O)N2CCOc3cc(C(=O)NO)ccc3C2)CC1` [N-hydroxy-4-(2-(1-(methylsulfonyl)piperidin-4-yl)acetyl)-2,3,4,5-tetrahydrobenzo[f][1,4]oxazepine-8-carboxamide]: the IC50 was greater than 500 nM.

Regarding `COc1ccccc1C(C)(C)C(=O)N1CCOc2cc(C(=O)NO)ccc2C1` [N-hydroxy-4-(2-(2-methoxyphenyl)-2-methylpropanoyl)-2,3,4,5-tetrahydrobenzo[f][1,4]oxazepine-8-carboxamide], the IC50 was greater than 500 nM.

These data come from patent US11891365B2, “3-alkyl-4-amido-bicyclic [4,5,0] hydroxamic acids as HDAC inhibitors” (Valo Health, Inc., priority 2015, dated 2024).
